Measurements: US20230139171A1 (SITA Information Networking Computing UK Limited, priority 2019, published 2023)

How the values were obtained:
Format in all cases: cell-based
human TLR9 = molecular target: T1, human TLR9 (Homo sapiens, UniProt Q9NR96); assay: TLR9 inhibition reporter assay (HEK-Blue cells, SEAP reporter, ODN2006 stimulation); details: HEK-Blue cells overexpressing human TLR9, SEAP reporter, ODN2006 5 nM
T1 construct: host or cells: HEK-Blue cells
T1 sequence (Q9NR96 26-1032): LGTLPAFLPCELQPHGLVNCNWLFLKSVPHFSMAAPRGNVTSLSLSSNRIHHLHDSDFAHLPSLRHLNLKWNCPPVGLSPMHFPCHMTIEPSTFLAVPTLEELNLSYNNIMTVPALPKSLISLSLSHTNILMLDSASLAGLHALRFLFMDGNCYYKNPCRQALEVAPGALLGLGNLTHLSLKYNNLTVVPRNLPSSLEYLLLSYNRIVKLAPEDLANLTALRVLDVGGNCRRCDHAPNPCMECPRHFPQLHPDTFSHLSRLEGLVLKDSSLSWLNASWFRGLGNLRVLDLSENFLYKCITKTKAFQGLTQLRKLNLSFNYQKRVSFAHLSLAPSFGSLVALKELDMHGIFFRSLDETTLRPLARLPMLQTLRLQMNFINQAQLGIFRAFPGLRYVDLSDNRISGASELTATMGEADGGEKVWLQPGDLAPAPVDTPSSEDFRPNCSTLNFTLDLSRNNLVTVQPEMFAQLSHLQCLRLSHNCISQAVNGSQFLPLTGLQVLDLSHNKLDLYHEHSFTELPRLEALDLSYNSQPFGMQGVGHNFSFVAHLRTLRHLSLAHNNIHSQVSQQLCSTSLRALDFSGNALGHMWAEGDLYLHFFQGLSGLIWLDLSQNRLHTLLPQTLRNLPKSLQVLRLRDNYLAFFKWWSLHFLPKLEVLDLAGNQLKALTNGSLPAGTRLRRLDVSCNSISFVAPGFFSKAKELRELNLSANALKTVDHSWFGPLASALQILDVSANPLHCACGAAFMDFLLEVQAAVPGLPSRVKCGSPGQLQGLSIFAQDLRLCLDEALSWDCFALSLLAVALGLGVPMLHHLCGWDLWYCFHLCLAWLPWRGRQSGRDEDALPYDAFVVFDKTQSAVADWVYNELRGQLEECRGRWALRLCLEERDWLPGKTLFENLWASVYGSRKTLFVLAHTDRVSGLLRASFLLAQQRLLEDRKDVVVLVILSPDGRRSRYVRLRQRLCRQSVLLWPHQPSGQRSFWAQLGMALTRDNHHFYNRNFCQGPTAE
How it was run: (§1)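 HEK-Blue cells overexpressing human TLR7, TLR8 or TLR9 carry a SEAP reporter driven by NF-κB/AP-1 sites. Compounds (0.05 nM–50 μM) were preincubated 30 min at room temperature, then cells were stimulated with gardiquimod 7.5 μM (TLR7), R848 15.9 μM (TLR8) or ODN2006 5 nM (TLR9) for 22 h at 37 °C.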

human TLR8 = molecular target: T2, human TLR8 (Homo sapiens, UniProt Q9NR97); assay: TLR8 inhibition reporter assay (HEK-Blue cells, SEAP reporter, R848 stimulation); details: HEK-Blue cells overexpressing human TLR8, SEAP reporter, R848 15.9 μM; read-out: TLR8 IC50
T2 construct: host or cells: HEK-Blue cells
T2 sequence (Q9NR97 27-1041): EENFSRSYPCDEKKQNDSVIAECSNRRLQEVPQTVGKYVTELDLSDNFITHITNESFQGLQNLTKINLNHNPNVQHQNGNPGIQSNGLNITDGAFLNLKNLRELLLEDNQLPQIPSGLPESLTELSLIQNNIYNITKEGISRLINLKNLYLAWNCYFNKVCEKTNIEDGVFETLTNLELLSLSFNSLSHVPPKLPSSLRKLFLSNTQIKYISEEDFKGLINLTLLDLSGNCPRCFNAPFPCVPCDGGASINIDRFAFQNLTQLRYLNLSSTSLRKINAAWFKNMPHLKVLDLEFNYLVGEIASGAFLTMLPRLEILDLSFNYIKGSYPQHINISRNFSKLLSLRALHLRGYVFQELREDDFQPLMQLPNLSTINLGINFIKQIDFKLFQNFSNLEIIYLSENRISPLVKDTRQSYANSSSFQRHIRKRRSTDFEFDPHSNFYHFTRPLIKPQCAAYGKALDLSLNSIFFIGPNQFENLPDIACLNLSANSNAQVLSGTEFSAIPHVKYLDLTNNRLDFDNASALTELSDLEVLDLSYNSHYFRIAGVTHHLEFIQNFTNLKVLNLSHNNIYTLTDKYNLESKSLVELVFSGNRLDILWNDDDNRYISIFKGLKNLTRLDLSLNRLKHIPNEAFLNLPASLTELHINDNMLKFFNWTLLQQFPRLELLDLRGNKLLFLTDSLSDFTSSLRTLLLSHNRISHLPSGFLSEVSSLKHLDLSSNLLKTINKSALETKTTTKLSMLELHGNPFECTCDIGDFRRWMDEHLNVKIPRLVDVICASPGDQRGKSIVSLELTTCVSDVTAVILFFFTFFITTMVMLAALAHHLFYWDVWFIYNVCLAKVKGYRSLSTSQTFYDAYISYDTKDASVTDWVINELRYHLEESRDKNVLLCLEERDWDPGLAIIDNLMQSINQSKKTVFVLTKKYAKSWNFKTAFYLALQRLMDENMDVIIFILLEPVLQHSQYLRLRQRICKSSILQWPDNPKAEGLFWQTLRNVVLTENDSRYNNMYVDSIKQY
How it was run: as §1

human TLR7 = molecular target: T3, human TLR7 (Homo sapiens, UniProt Q9NYK1); assay: TLR7 inhibition reporter assay (HEK-Blue cells, SEAP reporter, gardiquimod stimulation); details: HEK-Blue cells overexpressing human TLR7, SEAP reporter, gardiquimod 7.5 μM; read-out: TLR7 IC50
T3 construct: host or cells: HEK-Blue cells
T3 sequence (Q9NYK1 27-1049): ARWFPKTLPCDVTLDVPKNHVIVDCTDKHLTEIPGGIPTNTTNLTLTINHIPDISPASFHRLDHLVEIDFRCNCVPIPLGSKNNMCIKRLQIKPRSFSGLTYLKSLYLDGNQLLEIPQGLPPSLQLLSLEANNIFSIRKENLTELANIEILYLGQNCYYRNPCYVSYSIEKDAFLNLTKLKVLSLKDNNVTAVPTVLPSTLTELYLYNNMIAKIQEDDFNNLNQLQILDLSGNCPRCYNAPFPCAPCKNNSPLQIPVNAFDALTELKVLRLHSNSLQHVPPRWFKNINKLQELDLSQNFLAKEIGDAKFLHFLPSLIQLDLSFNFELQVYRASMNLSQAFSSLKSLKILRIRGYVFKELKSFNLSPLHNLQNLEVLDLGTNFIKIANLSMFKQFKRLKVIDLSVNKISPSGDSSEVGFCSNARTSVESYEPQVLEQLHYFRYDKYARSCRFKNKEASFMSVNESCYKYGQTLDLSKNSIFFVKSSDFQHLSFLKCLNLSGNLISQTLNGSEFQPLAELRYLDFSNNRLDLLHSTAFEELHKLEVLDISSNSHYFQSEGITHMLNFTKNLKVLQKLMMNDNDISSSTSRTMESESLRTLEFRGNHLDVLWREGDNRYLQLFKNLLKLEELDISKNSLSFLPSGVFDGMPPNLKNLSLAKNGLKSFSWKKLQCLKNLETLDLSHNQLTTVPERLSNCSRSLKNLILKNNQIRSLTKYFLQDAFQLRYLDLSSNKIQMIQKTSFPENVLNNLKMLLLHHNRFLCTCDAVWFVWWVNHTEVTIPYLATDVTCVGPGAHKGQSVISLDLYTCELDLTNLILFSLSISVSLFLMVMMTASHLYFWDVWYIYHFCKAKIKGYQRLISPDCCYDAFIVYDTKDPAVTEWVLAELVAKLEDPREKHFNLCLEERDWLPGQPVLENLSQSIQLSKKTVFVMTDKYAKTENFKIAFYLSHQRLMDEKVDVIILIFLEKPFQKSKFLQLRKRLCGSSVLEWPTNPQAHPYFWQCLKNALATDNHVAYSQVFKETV
How it was run: as §1

Q: Cc1c(-c2[nH]c3sc(C4CCC(NC5CCOCC5)CC4)nc3c2C(C)C)cn2ncnc2c1C (single isomer, unassigned) [Example 201, N-(4-(5-(7,8-dimethyl-[1,2,4]triazolo[1,5-a]pyridin-6-yl)-6-isopropyl-4H-pyrrolo[3,2-d]thiazol-2-yl)cyclohexyl)tetrahydro-2H-pyran-4-amine] was tested. Which IC50 (human TLR9) did it give?
A: 9250 nM

Q: What about the IC50 (human TLR8) of the same molecule?
A: 4.21 nM

Q: What about the IC50 (human TLR7) of the same molecule?
A: 6.66 nM

Q: With Cc1c(-c2[nH]c3sc(C4CCC(NCC(=O)N(C)C)CC4)nc3c2C(C)C)cn2ncnc2c1C (single isomer, unassigned) [Example 204, 2-((4-(5-(7,8-dimethyl-[1,2,4]triazolo[1,5-a]pyridin-6-yl)-6-isopropyl-4H-pyrrolo[3,2-d]thiazol-2-yl)cyclohexyl)amino)-N,N-dimethylacetamide] as the molecule, how does the IC50 (human TLR9) read?
A: 17800 nM

Q: What about the IC50 (human TLR8) of the same molecule?
A: 0.63 nM

Q: What about the IC50 (human TLR7) of the same molecule?
A: 1.5 nM

Q: Which IC50 (human TLR9) does the source give for Cc1c(-c2[nH]c3sc(C4CCC(NCC(=O)N(C)C)CC4)nc3c2C(C)C)cn2ncnc2c1C (single isomer, unassigned) [Example 205, 2-((4-(5-(7,8-dimethyl-[1,2,4]triazolo[1,5-a]pyridin-6-yl)-6-isopropyl-4H-pyrrolo[3,2-d]thiazol-2-yl)cyclohexyl)amino)-N,N-dimethylacetamide] here?
A: 21500 nM

Q: What about the IC50 (human TLR8) of the same molecule?
A: 2.33 nM

Q: And the IC50 (human TLR7)?
A: 6.66 nM

Q: Which IC50 (human TLR9) does the source give for CNC(=O)CNC1CCC(c2nc3c(C(C)C)c(-c4cn5ncnc5c(C)c4C)[nH]c3s2)CC1 (single isomer, unassigned) [Example 208, 2-((4-(5-(7,8-dimethyl-[1,2,4]triazolo[1,5-a]pyridin-6-yl)-6-isopropyl-4H-pyrrolo[3,2-d]thiazol-2-yl)cyclohexyl)amino)-N-methylacetamide] here?
A: 20000 nM

Q: And the IC50 (human TLR8)?
A: 0.52 nM

Q: What about the IC50 (human TLR7) of the same molecule?
A: 1 nM

Q: What does the source list for CNC(=O)CNC1CCC(c2nc3c(C(C)C)c(-c4cn5ncnc5c(C)c4C)[nH]c3s2)CC1 (single isomer, unassigned) [Example 209, 2-((4-(5-(7,8-dimethyl-[1,2,4]triazolo[1,5-a]pyridin-6-yl)-6-isopropyl-4H-pyrrolo[3,2-d]thiazol-2-yl)cyclohexyl)amino)-N-methylacetamide]?
A: IC50 (human TLR9): 4170 nM; IC50 (human TLR8): 0.14 nM; IC50 (human TLR7): 0.32 nM

Q: For Cc1c(-c2[nH]c3sc(C4CCC(N5CCOCC5)CC4)nc3c2C(C)C)cn2ncnc2c1C (single isomer, unassigned) [Example 212, 4-(4-(5-(7,8-dimethyl-[1,2,4]triazolo[1,5-a]pyridin-6-yl)-6-isopropyl-4H-pyrrolo[3,2-d]thiazol-2-yl)cyclohexyl) morpholine], which IC50 (human TLR9) is on record?
A: 7390 nM

Q: And the IC50 (human TLR8)?
A: 0.63 nM

Q: And the IC50 (human TLR7)?
A: 0.62 nM

Q: For Cc1c(-c2[nH]c3sc(C4CCC(N5CCOCC5)CC4)nc3c2C(C)C)cn2ncnc2c1C (single isomer, unassigned) [Example 213, 4-(4-(5-(7,8-dimethyl-[1,2,4]triazolo[1,5-a]pyridin-6-yl)-6-isopropyl-4H-pyrrolo[3,2-d]thiazol-2-yl)cyclohexyl) morpholine], which IC50 (human TLR9) is on record?
A: 25500 nM

Q: And the IC50 (human TLR8)?
A: 3.41 nM

Q: What about the IC50 (human TLR7) of the same molecule?
A: 4.64 nM

Q: How did the IC50 (human TLR9) turn out when Cc1c(-c2[nH]c3sc(C4CCC(NCC5(S(C)(=O)=O)CC5)CC4)nc3c2C(C)C)cn2ncnc2c1C (single isomer, unassigned) [Example 214, 4-(5-(7,8-dimethyl-[1,2,4]triazolo[1,5-a]pyridin-6-yl)-6-isopropyl-4H-pyrrolo[3,2-d]thiazol-2-yl)-N-((1-(methylsulfonyl)cyclopropyl)methyl) cyclohexan-1-amine] was run?
A: 10300 nM

Q: What about the IC50 (human TLR8) of the same molecule?
A: 0.39 nM

Q: And the IC50 (human TLR7)?
A: 1.37 nM

Q: Which results are given for Cc1c(-c2[nH]c3sc(C4CCC(NCC5(S(C)(=O)=O)CC5)CC4)nc3c2C(C)C)cn2ncnc2c1C (single isomer, unassigned) [Example 215, 4-(5-(7,8-dimethyl-[1,2,4]triazolo[1,5-a]pyridin-6-yl)-6-isopropyl-4H-pyrrolo[3,2-d]thiazol-2-yl)-N-((1-(methylsulfonyl)cyclopropyl)methyl) cyclohexan-1-amine]?
A: IC50 (human TLR9): 15000 nM; IC50 (human TLR8): 6 nM; IC50 (human TLR7): 2.3 nM

Q: How did the IC50 (human TLR9) turn out when Cc1c(-c2[nH]c3sc(C4CCC(N5CCC5)CC4)nc3c2C(C)C)cn2ncnc2c1C (single isomer, unassigned) [Example 216, 2-(4-(azetidin-1-yl)cyclohexyl)-5-(7,8-dimethyl-[1,2,4]triazolo[1,5-a]pyridin-6-yl)-6-isopropyl-4H-pyrrolo[3,2-d]thiazole] was run?
A: 6520 nM

Q: What about the IC50 (human TLR8) of the same molecule?
A: 1.02 nM

Q: And the IC50 (human TLR7)?
A: 0.72 nM

Q: Cc1c(-c2[nH]c3sc(C4CCC(N5CCC5)CC4)nc3c2C(C)C)cn2ncnc2c1C (single isomer, unassigned) [Example 217, 2-(4-(azetidin-1-yl)cyclohexyl)-5-(7,8-dimethyl-[1,2,4]triazolo[1,5-a]pyridin-6-yl)-6-isopropyl-4H-pyrrolo[3,2-d]thiazole] was tested. Which IC50 (human TLR9) did it give?
A: 5870 nM

Q: What about the IC50 (human TLR8) of the same molecule?
A: 5.3 nM

Q: And the IC50 (human TLR7)?
A: 2.41 nM
